Laboratory results reported in patent US20230398228A1, “ERIBULIN-BASED ANTIBODY-DRUG CONJUGATES AND METHODS OF USE” (EISAI R&D MANAGEMENT CO., LTD., priority 2016, published 2023).
“Also recorded” adds a separate entry of the source. Where two headings read alike, the source gives them in different places.

Columns and labels:
SJSA-1 cells = test: Crystal Violet cytotoxicity assay (Examples 1 and 2), SJSA-1
Procedure: (§1) Typically, test reagents were serial diluted 1:4 in 2 mL deep-well dilution plates, starting at 1 μM (10 dilutions total). 100 μL of diluted samples were added to the cell plates (starting concentration of test samples at 500 nM). […] Medium was discarded, plates were washed once with 200 μL DPBS, stained with 50 μL of 0.2% Crystal Violet solution at room temperature for 15 min, and then washed extensively with tap water. Plates were air-dried, and Crystal Violet was dissolved with 200 μL of 1% SDS solution. Plates were read at 570 nm. Data was analyzed using GraphPad Prism 6. Assays were performed using a seeding density of 1,000 cells per well and compound exposure was for a total of 5 days. When shorter-term exposure was desired, medium containing cytotoxic agents was removed after 4 hours and replaced with fresh growth medium prior to 5-day incubation. For OVCAR3, CaOV3, and NCI-H2110, cells were seeded at 3,000 cells/well and incubated for 5 days with ADC.
In vitro potency of prepared ADCs was assessed using a Crystal Violet assay as detailed in section 1.4.1.
(§2) SJSA-1 cells are a human osteosarcoma tumor cell line that are negative for folate receptor alpha.
Typically, test reagents were serially-diluted 1:4 in 2 mL deep-well dilution plates, starting at 1 μM (10 dilutions total). 100 μL of diluted samples were added to the cell plates (starting concentration of test samples at 100 nM). […] Medium was discarded, plates were washed once with 200 μL DPBS, stained with 50 μL of 0.2% Crystal Violet solution at room temperature for 15 min, and then washed extensively with tap water. Plates were air-dried, and Crystal Violet was dissolved with 200 μL of 1% SDS solution. Plates were read at 570 nm. Data was analyzed using GraphPad Prism 6.

OVCAR3 cells = test: Crystal Violet cytotoxicity assay (Examples 1 and 2), OVCAR3; conditions: Example 1
Procedure: as §1, §2
Typically, test reagents were serially-diluted 1:4 in 2 mL deep-well dilution plates, starting at 1 μM (10 dilutions total). 100 μL of diluted samples were added to the cell plates (starting concentration of test samples at 100 nM). […] Plates were read at 570 nm. Data was analyzed using GraphPad Prism 6.

[1] = test system: human BM-MSCs co-cultured with MKN-74 cells; test: 3D co-culture system (rStomach, zPredicta), MSC differentiation by flow cytometry; type: cell-based; conditions: 7 days treatment, MORAb-202 10 nM, MORAb-003 10 nM, eribulin […] and 0.2 nM (Table 41)
Procedure: All mesenchymal stem cell (MSC)-containing 3D co-culture experiments were conducted in zPredicta, using organ-specific 3D extracellular matrix systems such as rStomach™. Bone marrow mesenchymal stem cells (BM-MSCs) in rStomach™ were co-cultured with the Nuc Red Light MKN-74 gastric cancer cell line in quadruplicate in 48-well format for 12 days. […] Prior to culture, BM-MSCs were evaluated for target antigen expression and for markers of MSC differentiation (Table 40) by flow cytometry.
Controls included untreated and vehicle-treated (PBS and DMSO) cultures. MSC differentiation was monitored by light microscopy. Once visible differentiation was observed, samples were harvested for staining and flow cytometry analysis.
Bone marrow mesenchymal stem cells (BM-MSCs) in rStomach™ (zPredicta) were co-cultured with the MKN-74 gastric cancer cell line for 12 days. […] Once visible MSC differentiation was observed by light microscopy, samples were harvested for staining and flow cytometry analysis.

NCI-N87 cells = test: Crystal Violet cytotoxicity assay (Example 4), NCI-N87; type: cell-based, human
Procedure: (§3) Test reagents were serial diluted 1:3 in 2 mL deep-well dilution plates, starting at 200 nM (10 dilutions total). […] Medium was then discarded. […] Plates were read at 570 nm. Data was analyzed using GraphPad Prism 6.

BT-474 cells = test: Crystal Violet cytotoxicity assay (Example 4), BT-474; type: cell-based, human
Procedure: as §3

NUGC3 cells = test: Crystal Violet cytotoxicity assay (Example 4), NUGC3; type: cell-based, human; conditions: listed as MORAb-003-VCP-eribulin
Procedure: as §3

[2] = test system: OD-BRE-0631 TNBC patient-derived xenograft; conditions: 5 mg/kg single dose, five days post-treatment
[3] = test system: cancer associated fibroblasts (α-smooth muscle actin) in H2110 xenograft; conditions: 5 mg/kg single dose
Procedure: Prior to staining, slides were dewaxed and antigen was retreived in a Lab Vision™ PT Module (Thermo Scientific), in citrate buffer (pH 6.0) pre-warmed to 85° C., using the following program: warm to 97° C.; incubate at 97° C. for 30 min; and cool to 60° C. Slides were then transferred to double distilled water at room temperature for 5 min. Staining was performed in a Lab Vision™ Autostainer 360 (Thermo Scientific). Briefly, slides were washed twice in 1×Tris-buffered saline/Tween-20 (TBST) for 6 min/wash. Tissue sections were then incubated in blocking buffer (300 μL) (10% goat serum (Jackson Immunoresearch Laboratory Inc., Cat No. 005-000-121) diluted in 3% bovine serum albumin (BSA)-phosphate buffered saline (PBS)) for 1 hour, incubated in conjugated antibody (200 μL) (Table 38) for 1 hour, and washed five times in 1×TBST for 6 min/wash. Slides were counterstained with DAPI in mounting media, and coverslipped slides were allowed to harden for 30 min. Slides were processed on a Panoramic MIDI scanner (3[sequence]), and IHC images were analyzed using Halo software (Indica Labs).
Collected tumor samples were processed on slides, and cancer associated fibroblast (CAF) expression was analyzed by IHC.

## MORAb-003-maleimido-PEG2-Val-Cit-pAB-eribulin [MORAb-202]
SJSA-1 cells; Example 1 screening
  killing of FR-negative SJSA-1 cells (off-target), in words: little killing
SJSA-1 cells; read-out: Cytotoxicity (IC50) SJSA-1, SJSA-1 cells, mean of replicate experiments, where performed
  IC50: > 100 nM
SJSA-1 cells; read-out: cytotoxicity (EC50) on SJSA-1 cells, Example 2
  EC50: > 100 nM
OVCAR3 cells
  cytotoxicity on OVCAR3 cells, in words: potent cytotoxicity
[1]; PBS 14.6%
  Percentage of live cells, Pericytes: 11.4%
[1]; PBS […]
  Percentage of live cells, Adipocytes: 22.6%
  Percentage of live cells, MSCs: 43.7%
NCI-N87 cells
  cytotoxicity on NCI-N87 cells, in words: weak but specific killing
BT-474 cells
  cytotoxicity on BT-474 cells, in words: little killing
NUGC3 cells
  cytotoxicity on NUGC3 cells, in words: little killing; also recorded: low cytotoxicity
[2]
  cancer associated fibroblast structure by anti-α-SMA-FITC IHC, in words: diminish the structure of cancer associated fibroblasts
  tumor cell occupation by IHC with anti-human IgG antibody, in words: occupies folate receptor alpha-expressing tumor cells
[3]; Day 3 and Day 5
  CAF network structure (anti-α-SMA-FITC staining), in words: prominent
[3]; by Day 7
  CAF network structure (anti-α-SMA-FITC staining), in words: significantly diminished
